From ChEMBL document CHEMBL1128114, “Enzymatic resolution and pharmacological activity of the enantiomers of 3,5-dihydroxyphenylglycine, a metabotropic glutamate receptor agonist” (Bioorg Med Chem Lett, 1995) come the findings set out here.

The target in the assay is Metabotropic glutamate receptor. The assay can be described thus: Compound was tested for ability to stimulate metabotropic glutamate receptor (mGluR) mediated phosphoinositide hydrolysis in rat hippocampus. The class given is functional, tissue-based.

`N[C@H](C(=O)O)c1cc(O)cc(O)c1` registered an EC50 of 10.9 µM. In the case of `N[C@@H](C(=O)O)c1cc(O)cc(O)c1`, the concentration for a half-maximal effect (EC50) turned out to be 106 µM.
